Laboratory results from PubChem BioAssay (NCI).
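Five compound concentrations were applied to cells in 96-well plates for 48 hours; endpoints were derived by simple linear interpolation of the resulting dose-response curve. TGI marks complete inhibition of growth.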

Key:
Assay in all cases: inhibition of tumour cell growth, NCI panel, 48 h
BT-549 breast = system: BT-549 breast
UACC-257 melanoma = system: UACC-257 melanoma
MDA-MB-231 breast = system: MDA-MB-231 breast
SF-295 CNS = system: SF-295 CNS
DU-145 prostate = system: DU-145 prostate
NCI/ADR-RES ovarian = system: NCI/ADR-RES ovarian
LOX IMVI melanoma = system: LOX IMVI melanoma
HOP-92 NSCLC = system: HOP-92 NSCLC
MOLT-4 leukemia = system: MOLT-4 leukemia
RPMI-8226 leukemia = system: RPMI-8226 leukemia
M14 melanoma = system: M14 melanoma
SK-MEL-28 melanoma = system: SK-MEL-28 melanoma
PC-3 prostate = system: PC-3 prostate
UACC-62 melanoma = system: UACC-62 melanoma
SW-620 colon = system: SW-620 colon
ACHN renal = system: ACHN renal
NCI-H23 lung = system: NCI-H23 lung
MDA-N = system: MDA-N
HCC-2998 colon = system: HCC-2998 colon
SK-MEL-2 melanoma = system: SK-MEL-2 melanoma
IGROV1 ovarian = system: IGROV1 ovarian
MDA-MB-435 = system: MDA-MB-435
MCF7 breast = system: MCF7 breast
COLO 205 colon = system: COLO 205 colon
UO-31 renal = system: UO-31 renal
SK-OV-3 ovarian = system: SK-OV-3 ovarian
SN12C renal = system: SN12C renal
SF-539 CNS = system: SF-539 CNS
SNB-75 CNS = system: SNB-75 CNS
HCT-15 colon = system: HCT-15 colon
OVCAR-8 ovarian = system: OVCAR-8 ovarian
SF-268 CNS = system: SF-268 CNS
A549 NSCLC = system: A549 NSCLC
TK-10 renal = system: TK-10 renal
OVCAR-3 ovarian = system: OVCAR-3 ovarian
K-562 leukemia = system: K-562 leukemia
EKVX NSCLC = system: EKVX NSCLC
SNB-19 CNS = system: SNB-19 CNS
HOP-62 NSCLC = system: HOP-62 NSCLC
RXF 393 renal = system: RXF 393 renal
SK-MEL-5 melanoma = system: SK-MEL-5 melanoma
NCI-H522 lung = system: NCI-H522 lung
786-0 renal = system: 786-0 renal
CCRF-CEM leukemia = system: CCRF-CEM leukemia
HCT-116 colon = system: HCT-116 colon
OVCAR-4 ovarian = system: OVCAR-4 ovarian
KM12 colon = system: KM12 colon
U251 CNS = system: U251 CNS
HT29 colon = system: HT29 colon
OVCAR-5 ovarian = system: OVCAR-5 ovarian

Measured: TGI

CCOC(=O)N/N=C(/N)Cc1ccc(Cl)cc1
> 100 µM: all assays above
